# Data: PMC3558931 (Chemistry & biology, 2013)
# System: methyltransferase NcpB
# Assay: NcpB O-methyltransferase enzyme assay
# Conditions: with NcpB and SAM
row,Compound,substrate of NcpB (O-methylation)
1,"Cc1cc(O)c(C)c(=O)o1 [4-hydroxy-3,6-dimethyl-2-pyrone]",not substrates
2,germicidin A,not substrates
3,Cc1cc(O)cc(=O)o1,not substrates
